Reference: patent US20260224733A1, “NANOPARTICLES DIRECTED TO CXCR4 AND USE THEREOF” (TECHNION RESEARCH & DEVELOPMENT FOUNDATION LIMITED, priority 2023, published 2026)
pIC50: −log10 of the molar value. Where two headings read alike, the source gives them in different places.

Columns and labels:
Type in all cases: cell-based, human
[1] = test system: RPMI8226 cells; experiment: IC50 of bortezomib and ATBL in RPMI8226 cells; details: for pIC50: read-out: half maximal inhibitory concentration (IC50)
Procedure: CAG, U266 and RPMI8226 human MM cells; (American Type Culture Collection; ATCC); KMS-11 (originally from the Japanese Collection of Research Bioresource); human MM cells and MPC-11 murine myeloma cell line (kindly provided by Professor Ralph Sanderson, University of Alabama, USA) and HL60 human acute myeloid leukemia (ATCC) were used. Cells were cultured in RPMI-1640 medium supplemented with 10% fetal bovine serum (FBS), supplemented with 1% L-glutamine, 1% sodium pyruvate and 1% pen-strep-neomycin. All cells were cultured at 37° C. in 5% CO2 for no more than 6 months after being thawed from the authentic stocks.
The half maximal inhibitory concentration (IC50) of bortezomib and ATBL was evaluated in RPMI8226 cells.

[2] = test system: CAG cells; experiment: Apoptosis assay (7AAD and Annexin V, flow cytometry); details: 48 h; compared to other treatments tested
Procedure: (§1) In another experiment cells were incubated with 10% plasma obtained from vehicle-treated mice, bortezomib-treated mice (at the 24 h time-point) or ATBL-treated mice at 24, 72 and 168 h time-point post administration. Then cell viability and apoptosis status; healthy, early apoptosis, late apoptosis and dead, were determent using 7AAD and Annexin V staining and were used in accordance with the manufacturer's instruction. At least 50,000 events were acquired using a LSRFortessa flow cytometer (BD) and analyzed with FlowJo 10.
(§2) To determine the therapeutic effect of ATBL compared to free bortezomib, a cell viability and apoptosis assay was used. To this end, CAG and RPMI8226 cells were treated with ATBL, bortezomib in naked liposomes, free bortezomib, AMD on empty liposomes, free AMD, empty naked liposomes and vehicle. […] However, the inventors hypothesized that in an in vivo model, ATBL will have better therapeutic efficacy due to its targeting properties.

[3] = test system: RPMI8226 cells; experiment: as above; details: 48 h; compared to other treatments tested
Procedure: as §1, §2

pIC50 ([1]; Homo sapiens, RPMI-8226, RPMI8226 cells): 7.96 | IC50 of bortezomib relative to ATBL ([1]; RPMI8226 cells): ~2 fold | pIC50 ([1]; RPMI8226 cells): 8.04
Compound: CC(C)C[C@H](NC(=O)[C@H](Cc1ccccc1)NC(=O)c1cnccn1)B(O)O [bortezomib, [(1R)-3-methyl-1-[[(2S)-3-phenyl-2-(pyrazine-2-carbonylamino)propanoyl]amino]butyl]boronic acid]
late apoptosis [2]: significant higher late apoptosis | late apoptosis [3]: significant higher late apoptosis
